Results as given in patent US20240209016A1, “FLUORESCENT NUCLEOSIDE PHOSPHATES” (STEALTH LABELS BIOTECH AB, priority 2021, published 2024).

Key:
Type in all cases: cell-based, human
Huh-7 cells [1] = assay: Uptake kinetics monitored by flow cytometry; conditions: 2.5 μM; for exposure time at which uptake reaches plateau / saturation: 5 min to 4 h exposure
Protocol: For flow cytometry experiments, cells were seeded in a 48-well plate as described above. For kinetics experiments of the uptake, solutions of 2.5 μM of compounds 7 or 17 in CCM were added. Control samples were CCM, containing an equal volume of DPBS instead of FBA-TP. All treatments were done in triplicate. The experiment was setup such that all samples could be harvested at the same time at the end of the experiment. The FBA-TP solutions where therefore added at different time points. At the end of the experiment, the cells were washed twice with DPBS, and thereafter harvested by addition of 0.25% trypsin-EDTA. The trypsin was neutralized by adding DPBS with 2% added FBS and samples were transferred to a 96 U-bottom well plate for high throughput readout.
Measurements were generally performed on a BD LSRFortessa flow cytometer with an BD High Throughput Sampler (HTS). The system was connected to the software BD FACSDiva. Samples were excited using a 405 nm laser and emission passed through a bandpass filter centred at 450 nm (±20 nm). Uptake kinetics experiments were repeated twice. For monophosphate compounds, a Luminex CellStream flow cytometer with a high throughput sampler (HTS) connected to the CellStream Acquisition software was used. Excitation wavelength was 405 nm, with the emission passing through a 456/51 nm bandpass filter.

Huh-7 cells [2] = assay: Cellular incorporation into RNA (emission of extracted RNA); conditions: 24 h exposure; for emission of RNA extracted from exposed cells (in-cellulo RNA labelling): excitation 350 nm (2CNqA) or 370 nm (pA)
Protocol: RNA Extraction: Cells were seeded in 12-well plates as described above. Treatment solutions were prepared by diluting compounds 7 and 17 to a concentration of 2.5 μM or 5 μM in CCM. Conditioned medium was removed from the cells and treatment solutions were added. For control cells CCM alone was added. Cells were incubated for 24 h at 37° C. and 5% CO2. For RNA extraction and purification, a QIAGEN RNeasy Mini Kit was used, following the manufacturer's protocol. Briefly, the cells were washed with DPBS, lysed, homogenized by 12 times passing it through a 20-gauge needle (0.9 mm outer diameter), and added to an equal volume of ethanol. The resulting solution was transferred to a RNeasy spin column and centrifuged. Then, binding buffer was added on top of the column, where after it was centrifuged again. The column-bound RNA was washed five times with washing buffer, with a centrifugation step between each addition. To elute the extracted RNA, 30 μL of the provided RNase-free water was applied to the column and centrifuged. This step was repeated twice to increase the yield of extracted RNA.
Three control samples were prepared to examine potential FBA-TP interferences with the extraction procedure, as well as non-covalent binding between the FBA-TP and RNA. 1) FBA-TP was added to the kit's lysate buffer to a concentration of 2.5 μM and treated in the same way starting from the homogenization step. 2) Unexposed cells were seeded and lysed as described above and FBA-TP was thereafter added directly to the lysate to make up a 2.5 μM final concentration. […] The concentration and purity of the RNA extracted from the unexposed cells were determined using a NanoDrop 2000 spectrophotometer (Thermo Scientific) and FBA-TP was added to reach a final concentration of 2.5 μM in the solution. […]
Absorption and Emission Readout of cellular RNA: Absorption spectra of extracted and purified RNA samples and controls were recorded on a Cary 4000 spectrometer (Agilent Technologies) between 200 nm and 600 nm. Emission spectra were measured on a SPEX Fluorolog 3 spectrofluorimeter (Jobin Yvon Horiba). […]

Huh-7 cells [3] = assay: Uptake competition with ATP or adenosine; conditions: 2.5 μM compound, 4 h, increasing ATP or adenosine
Protocol: Uptake of 2CNqATP and pATP was compared with natural adenosine triphosphate (ATP) or adenosine (both purchased from Sigma-Aldrich). The readout is based on the fluorescence of the compounds, detected in living cells by flow cytometry or in cell lysate using a microplate reader following co-administration with increasing concentrations of natural ATP or adenosine.
Cells were seeded in a 96-well plate. Treatment solutions with ATP or adenosine were prepared by stepwise dilution in CCM to reach the concentrations shown in FIG. 7. 2CNqATP or pATP were added at a concentration of 2.5 μM. The cells were incubated for 4 h at 37° C. and 5% CO2. Cell morphology was checked under a light microscope.
For flow cytometry, the treated cells were washed three times with DPBS and detached with 0.25% trypsin-EDTA, which was then neutralized with CCM. Samples were transferred to a 96 U-well plate for high throughput readout on a BD LSRFortessa flow cytometer. Samples were excited using a 405 nm laser and emission passed through a bandpass filter centred at 450 nm (±20 nm).
For lysate readout, cells were lysed in 5x passive lysis buffer (Promega) for 1 h rocking at room temperature (ca. 22° C.). Fluorescence was recorded on an Optima Blue Fluostar plate reader (BMG Labtech). 2CNqATP was excited at 355 nm (±20 nm) and emission was detected using bandpass filter centered at 460 nm (±12 nm). […]

Substance | lag phase of uptake (Huh-7 cells [1]) [min] | increase in cellular fluorescence over time (comparison) (Huh-7 cells [1]; 5 min to 4 h) | exposure time at which uptake reaches plateau / saturation (Huh-7 cells [1]) [h] | emission of RNA extracted from exposed cells (in-cellulo RNA labelling) (Huh-7 cells [2]) | uptake competition with ATP and adenosine (Huh-7 cells [3]) | exposure time at which fluorescence is significantly over the initial (t=0) level (Huh-7 cells [1]) [min] | emission maximum of RNA extracted from exposed cells (Huh-7 cells [2]; excitation at 350 nm) [nm]
((2R,3S,4R,5R)-5-(2,3,5,6-tetraazacyclopenta[de]tetracen-2(6H)-yl)-3,4-dihydroxytetrahydrofuran-2-yl)methyl hydrogen triphosphate [pATP] | 15 | significantly slower | > 4 | on the same level as the controls | also competes with ATP and adenosine, but the effect is considerably weaker | – | –
((2R,3S,4R,5R)-5-(8-cyano-2,3,5,6-tetraazaaceanthrylen-2(6H)-yl)-3,4-dihydroxytetrahydrofuran-2-yl)methyl hydrogen triphosphate [2CNqATP] | – | – | 2 | significant emission peak | competes with both ATP and adenosine with a stronger competition effect for ATP at low concentrations | 5 | 460
